Measured values reported in publication PMC10914734 (Signal Transduction and Targeted Therapy, 2024).

Tests used:
HCoV-229E = test: microbe, parasite or virus in culture; type: cell-based; conditions: Human coronavirus 229E, Huh-7, read-out: EC50, authentic HCoV-229E
SARS-CoV-2 PL^pro = SARS-CoV-2 PL^pro (Severe acute respiratory syndrome coronavirus 2, UniProt P0DTD1); test: biochemical; type: biochemical; conditions: at a concentration of 20 μM; for inhibition at 20 µM: read-out: Inhibition rate, SARS-CoV-2 PL^pro
[1] = test system: LPS-induced acute pulmonary inflammation; test: Mouse model of LPS-induced acute pulmonary inflammation; type: in vivo; conditions: 100 mg/kg intraperitoneal, 24 h after LPS induction; for Expression levels of inflammatory cytokines (IL-1β, IL-6, TNFα) and chemokines (CCL3, CSF3, CXCL10) in the lung tissues: mice
Experimental: C57BL/6 mice were obtained from Beijing HFK Bioscience Co., Ltd. (Beijing, China). Animals 6–8 weeks of age were used for the studies and were maintained with free access to pellet food and water in plastic cages at 21 ± 2 °C and kept on a 12 h light/dark cycle. Mice were randomly divided into four groups, each group containing eight mice. The mice were intraperitoneally administered with 100 mg/kg of 14a or 100 mg/kg of 14b or vehicle control 1 h prior to LPS challenge. The compounds were dissolved in solvent containing 5% dimethyl sulfoxide, 5% ethanol, 40% polyethylene glycol 400 and 50% saline (volume ratio). The mice were anesthetized by Zoletil 50. Then mice in the normal group were intranasally inoculated with 20 μL normal saline, and mice in the LPS challenge group were intranasally inoculated with 20 μL (5 μg/μL) LPS to induce pneumonia. At 12 h post-induction, the mice were again intraperitoneally administered with 100 mg/kg of 14a or 100 mg/kg of 14b or vehicle control. Twenty-four hours later, mice were euthanized, and the lung tissues were harvested for further study.
RNA isolation, cDNA synthesis, and RT-qPCR. Total RNA was isolated from lung tissues using RNA extraction reagent (Vazyme, R401-01). cDNA was synthesized using the HiScript II Q RT SuperMix (Vazyme, R223-01), according to the manufacturer’s instructions. RT-qPCR was performed using ChamQ SYBR qPCR Master Mix (Vazyme, Q331-02) in the CFX96TM Real Time PCR Detection System (Bio-Rad, Shanghai, China). The profile of thermal cycling consisted of initial denaturation at 95 °C for 30 s, 40 cycles at 95 °C for 5 s and 60 °C for 30 s. All primer sequences used in this study are listed in Supplementary Table S5.
Hematoxylin and eosin (H&E) staining. Lung tissue samples were fixed in 4% paraformaldehyde and embedded in paraffin (Thermo Scientific, 8331). […] was sectioned (5 μm) for H&E staining, and the stained sections were analyzed by a pathologist using a light microscope (Olympus, Tokyo, Japan). Lung injury was evaluated based on histological features, including alveolar septal thickening and inflammatory cell infiltration.

Human CTSE = Human CTSE (Homo sapiens, UniProt P14091); test: Protease panel, CTSE inhibition; type: biochemical; conditions: at a concentration of 20 μM; read-out: Inhibition rate, Human CTSE
B.1.617.2 (Delta) = test: microbe, parasite or virus in culture; type: cell-based; conditions: Severe acute respiratory syndrome coronavirus 2, HEK-293T, read-out: EC50, SARS-CoV-2 B.1.617.2 (Delta)
HCoV-OC43 = test: Protective effect against HCoV-OC43 infection in newborn mice; type: in vivo
Experimental: We also further assessed the in vivo antiviral activity of compound 14b against HCoV-OC43 infection in a mouse model. In the HCoV-OC43 infection mouse model, we treated newborn mice with 14b at a dose of 5 mg/kg by intraperitoneal injection 24 h after challenge with HCoV-OC43 at 100 TCID50.
Protective effect of 14b against HCoV-OC43 in vivo was assessed as previously reported.[45] All newborn mice were challenged with HCoV-OC43 (100 TCID50) by intranasal administration. For mice in the 14b-treated group, 14b (5 mg/kg) in a proper solution (1% dimethyl sulfoxide, 9% polyethylene glycol 300, and 90% aqueous solution containing 28% (w/v) hydroxypropyl β-cyclodextrin, volume ratio) was given by intraperitoneal injection. Mice in the viral control group were treated with PBS. Body weight and survival rate of these mice were then observed up to the 15th day post-infection.

Sequence of Human CTSE (P14091 54-396): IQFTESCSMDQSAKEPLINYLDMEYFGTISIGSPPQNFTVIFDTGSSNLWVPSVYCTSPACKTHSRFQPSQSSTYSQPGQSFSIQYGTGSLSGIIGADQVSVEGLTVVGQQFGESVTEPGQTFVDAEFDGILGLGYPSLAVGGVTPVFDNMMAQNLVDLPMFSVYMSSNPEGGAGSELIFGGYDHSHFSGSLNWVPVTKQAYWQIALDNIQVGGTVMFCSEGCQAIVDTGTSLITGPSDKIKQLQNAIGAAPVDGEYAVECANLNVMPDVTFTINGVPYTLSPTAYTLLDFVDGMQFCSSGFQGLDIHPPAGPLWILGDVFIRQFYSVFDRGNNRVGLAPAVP

Compound | EC50 (HCoV-229E) [nM] | Inhibitory activity against papain-like protease (PL^pro) (in words) (SARS-CoV-2 PL^pro) | inhibition at 20 µM (SARS-CoV-2 PL^pro) [%] | Lung histopathology (inflammatory cell infiltration, alveolar septal thickening) compared with vehicle-treated mice [1] | Expression levels of inflammatory cytokines (IL-1β, IL-6, TNFα) and chemokines (CCL3, CSF3, CXCL10) in the lung tissues [1] | inhibition (Human CTSE) [%] | EC50 (B.1.617.2 (Delta)) [nM] | Body weight of infected mice (HCoV-OC43; HCoV-OC43 100 TCID50, 5 mg/kg intraperitoneal injection) | Final survival rate (HCoV-OC43; HCoV-OC43 100 TCID50, 5 mg/kg intraperitoneal injection 24 h after challenge) [%]
O=C(NCc1ccccc1)C(=O)[C@H](C[C@@H]1CCCNC1=O)NC(=O)[C@H](Cc1ccc(F)cc1)NC(=O)c1cc2ccccc2o1 [14a, N-((S)-1-(((S)-4-(benzylamino)-3,4-dioxo-1-((S)-2-oxopiperidin-3-yl)butan-2-yl)amino)-3-(4-fluorophenyl)-1-oxopropan-2-yl)benzofuran-2-carboxamide] | 19 ± 4.17 | no inhibitory activity | 3 ± 2 | reduced inflammatory cell infiltration and alveolar septal thickening | reduced | 13 ± 1 | 0.8 ± 0.16 | – | –
O=C(NCc1ccccc1)C(=O)[C@H](C[C@@H]1CCCNC1=O)NC(=O)[C@H](CC1CCCCC1)NC(=O)c1cc2ccccc2o1 [14b, N-((S)-1-(((S)-4-(benzylamino)-3,4-dioxo-1-((S)-2-oxopiperidin-3-yl)butan-2-yl)amino)-3-cyclohexyl-1-oxopropan-2-yl)benzofuran-2-carboxamide] | 20.6 ± 8.19 | no inhibitory activity | 8 ± 1 | reduced inflammatory cell infiltration and alveolar septal thickening | reduced | 11 ± 2 | 0.84 ± 0.13 | either mildly decreased or rapidly recovered | 60
